From ChEMBL document CHEMBL5390242, “Design, Synthesis, and Antitumor Efficacy of Substituted 2-Amino[1,2,4]triazolopyrimidines and Related Heterocycles as Dual Inhibitors for Microtubule Polymerization and Janus Kinase 2” (J Med Chem, 2023)
pIC50: −log10 of the molar value. Active and inactive are the calls of the source. The rule behind the calls is not given here.

What was measured:
HeLa = experiment: Antiproliferative activity against human HeLa cells assessed as cell growth inhibition incubated for 48 hrs by MTT assay; format: functional, cell-based
KP-4 = experiment: Antiproliferative activity against human KP-4 cells assessed as cell growth inhibition incubated for 48 hrs by MTT assay; format: functional, cell-based; details: KP-4, 48 h
A549 [1] = experiment: Antiproliferative activity against human A549 cells assessed as cell growth inhibition incubated for 48 hrs by MTT assay; format: functional, cell-based; details: A549, 48 h
BXPC-3 = experiment: Antiproliferative activity against human BXPC-3 cells assessed as cell growth inhibition incubated for 48 hrs by MTT assay; format: functional, cell-based; details: BXPC-3, 48 h
MCF7 = experiment: cells; details: Homo sapiens, MCF7, 48 h
Description: Antiproliferative activity against human MCF7 cells assessed as cell growth inhibition incubated for 48 hrs by MTT assay

[2] = target: T1, Tyrosine-protein kinase JAK2 (Homo sapiens, UniProt O60674); experiment: Inhibition of JAK2 (unknown origin) using Poly-(Glu,Tyr 4:1) peptide as substrate at 1 uM in presence of ATP by ADP-Glo reagent based assay relative to control
T1 sequence (O60674 whole entry): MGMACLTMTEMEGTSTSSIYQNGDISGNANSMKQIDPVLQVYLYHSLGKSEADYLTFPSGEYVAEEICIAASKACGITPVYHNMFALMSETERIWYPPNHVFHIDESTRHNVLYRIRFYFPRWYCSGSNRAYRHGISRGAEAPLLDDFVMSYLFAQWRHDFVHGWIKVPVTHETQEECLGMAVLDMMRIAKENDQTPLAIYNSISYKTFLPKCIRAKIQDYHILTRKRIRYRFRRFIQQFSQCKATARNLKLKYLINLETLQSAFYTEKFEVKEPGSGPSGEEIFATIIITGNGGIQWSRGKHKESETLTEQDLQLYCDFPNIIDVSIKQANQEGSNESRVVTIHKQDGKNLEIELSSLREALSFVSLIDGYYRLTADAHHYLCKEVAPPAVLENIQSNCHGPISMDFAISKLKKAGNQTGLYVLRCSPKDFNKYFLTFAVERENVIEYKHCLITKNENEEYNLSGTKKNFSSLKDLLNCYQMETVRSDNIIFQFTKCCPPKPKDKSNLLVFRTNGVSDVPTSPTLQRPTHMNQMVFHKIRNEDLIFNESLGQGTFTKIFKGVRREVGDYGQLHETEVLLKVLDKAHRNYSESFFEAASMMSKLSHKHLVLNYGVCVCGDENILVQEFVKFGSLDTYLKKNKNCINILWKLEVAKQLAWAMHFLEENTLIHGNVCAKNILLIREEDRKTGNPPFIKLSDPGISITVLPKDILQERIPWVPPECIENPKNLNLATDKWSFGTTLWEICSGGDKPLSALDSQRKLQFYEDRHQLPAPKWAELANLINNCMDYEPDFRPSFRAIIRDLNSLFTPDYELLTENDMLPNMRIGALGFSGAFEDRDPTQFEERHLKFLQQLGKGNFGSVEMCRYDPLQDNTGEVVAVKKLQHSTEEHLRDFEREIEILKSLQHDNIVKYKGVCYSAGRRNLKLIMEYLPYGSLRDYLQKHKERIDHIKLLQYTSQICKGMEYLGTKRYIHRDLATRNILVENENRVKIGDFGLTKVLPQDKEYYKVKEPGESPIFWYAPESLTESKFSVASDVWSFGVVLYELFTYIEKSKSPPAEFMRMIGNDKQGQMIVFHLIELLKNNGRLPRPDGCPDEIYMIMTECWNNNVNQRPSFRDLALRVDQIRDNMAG

[3] = target: T1, Tyrosine-protein kinase JAK2; experiment: Inhibition of JAK2 (unknown origin) using Poly-(Glu,Tyr 4:1) peptide as substrate in presence of ATP by ADP-Glo reagent based assay
Tubulin = Tubulin (Sus scrofa, UniProt P02554+P02550); experiment: Inhibition of porcine brain tubulin polymerization measured for 30 mins in presence of GTP by microplate reader assay; format: tissue-based
A2780/Taxol = experiment: Antiproliferative activity against human A2780T cells assessed as cell growth inhibition incubated for 48 hrs by MTT assay; format: functional, cell-based
[4] = AUC (0 to t) in CD-1 mouse at 13 mg/kg,ip measured upto 24 hrs by HPLC-MS/MS analysis; format: ADME, organism-based; design: time < 24 hrs, dose 13 mg/kg, route ip; details: in vivo
[5] = AUC (0 to infinity) in CD-1 mouse at 13 mg/kg,ip measured upto 24 hrs by HPLC-MS/MS analysis; format: ADME, organism-based; design: time < 24 hrs, dose 13 mg/kg, route ip; details: in vivo
[6] = MRT (0 to t) in CD-1 mouse at 13 mg/kg,ip measured upto 24 hrs by HPLC-MS/MS analysis; format: ADME, organism-based; details: in vivo
[7] = MRT (0 to infinity) in CD-1 mouse at 13 mg/kg,ip measured upto 24 hrs by HPLC-MS/MS analysis; format: ADME, organism-based; details: in vivo
[8] = Half life in CD-1 mouse at 13 mg/kg,ip measured upto 24 hrs by HPLC-MS/MS analysis; format: ADME, organism-based; details: in vivo
[9] = Tmax in CD-1 mouse at 13 mg/kg,ip measured upto 24 hrs by HPLC-MS/MS analysis; format: ADME, organism-based; details: in vivo
[10] = Cmax in CD-1 mouse at 13 mg/kg,ip measured upto 24 hrs by HPLC-MS/MS analysis; format: ADME, organism-based; design: time < 24 hrs, dose 13 mg/kg, route ip; details: in vivo
A549 [11] = experiment: Antitumor activity against human A549 cells xenografted in Balb/c mouse assessed as tumor size at 50 mg/kg,ip administration measured after 31 days; format: functional; details: time 31 day
A549 [12] = experiment: Antitumor activity against human A549 cells xenografted in Balb/c mouse assessed as reduction in tumor weight at 50 mg/kg,ip administration measured after 31 days; format: functional; design: scale not given: the % may be the effect or the level left; details: time 31 day
A549 [13] = experiment: Antitumor activity against human A549 cells xenografted in Balb/c mouse assessed as increase in tumor necrotic cells at 50 mg/kg,ip administration measured after 31 days by Hematoxylin-eosin staining based microscopy; format: functional, organism-based; details: time 31.0 day
[14] = Toxicity in Balb/c mouse xenografted with human A549 cells assessed as change in body weight at 50 mg/kg,ip administration measured after 31 days; format: organism-based; details: in vivo, 744 h, time 31 day
[15] = Acute toxicity in C57BL/6 mouse assessed as maximum tolerated dose administered intravenously for 5 consecutive days; details: in vivo, route iv
HCT-8 = experiment: Antiproliferative activity against human HCT-8 cells assessed as cell growth inhibition incubated for 48 hrs by MTT assay; format: functional, cell-based; details: HCT-8, 48 h
[16] = Antiproliferative activity against human HCT-8/VCR cells assessed as cell growth inhibition incubated for 48 hrs by MTT assay; format: functional, cell-based
[17] = Resistance index, ratio of IC50 for antiproliferative activity against human HCT-8/VCR cells to IC50 for antiproliferative activity against human HCT-8 cells; format: functional
[18] = target: Tubulin beta (Homo sapiens) (UniProt P68371+Q9H4B7+Q13509+P04350+Q3ZCM7+P07437+Q13885+Q9BVA1+Q9BUF5+A6NNZ2); experiment: Binding affinity to beta-tubulin colchicine binding site in human A549 cells assessed as inhibition of EBI-beta-tubulin adduct band formation at 5 to 25 uM preincubated for 2 hrs followed by EBI addition measured after 1.5 hrs by EBI competition based Western blotting analysis; format: cell-based; details: dose 5-25 µM

pIC50 (HeLa) | pIC50 (A549 [1]) | pIC50 (BXPC-3) | pIC50 (MCF7) | inhibition [2] | Structure (SMILES) | pIC50 (KP-4) | also measured
6.01 | 5.73 | 6.16 | 6.57 |  | COc1cc(Nc2nc3ccnc(-c4cccc5[nH]ccc45)n3n2)cc(OC)c1OC | 6.15 | 
< 5.00 | < 5.00 | < 5.00 | < 5.00 |  | COc1cc(-c2nccc3nc(Nc4ccc5c6ccccc6n(C)c5c4)nn23)cc(OC)c1OC | < 5.00 | 
6.51 | 6.45 | 6.45 | 6.49 | 46% | COc1cc(-c2nccc3nc(Nc4ccc(C)c(O)c4)nn23)cc(OC)c1OC | 5.66 | 
7.23 | 5.15 | 7.42 | 7.60 |  | COc1cc(-c2cncc3nc(Nc4cccc5c4ccn5C)nn23)cc(OC)c1OC | 6.97 | 
6.88 | 7.09 | 7.70 | 7.44 | 96% | COc1cc(-c2nccc3nc(Nc4ccc5[nH]ccc5c4)nn23)cc(OC)c1OC | 6.45 | pIC50 [3]: 7.05; IC50 (Tubulin): 8800 nM
< 5.00 | < 5.00 | 5.40 | 5.82 |  | COCOc1cc(Nc2nc3ccnc(-c4cc(OC)c(OC)c(OC)c4)n3n2)ccc1OC | < 5.00 | 
< 5.00 | < 5.00 | < 5.00 | < 5.00 |  | COc1cc(-c2nccc3nc(Nc4ccc5c(c4)[nH]c4ccccc45)nn23)cc(OC)c1OC | < 5.00 | 
7.10 | 7.89 | 7.74 | 7.59 |  | COc1cc(-c2ccnc3nc(Nc4cccc5c4ccn5C)nn23)cc(OC)c1OC | 7.44 | 
5.59 | 6.59 | 5.62 | 6.49 | 1.7% | COc1cc(-c2nccc3nc(Nc4cccc5cc[nH]c45)nn23)cc(OC)c1OC | 5.92 | 
6.61 | 7.19 | 7.54 | 7.14 |  | COc1cc(-c2cccc3nc(Nc4cccc5[nH]ccc45)nn23)cc(OC)c1OC | 6.59 | 
4.95 | 5.40 | 5.22 | 5.46 |  | COc1ccc(-c2ccc3nnc(Nc4cc(OC)c(OC)c(OC)c4)n3c2)cc1O | 5.33 | 
6.23 | 5.62 | 5.85 | 6.02 |  | COc1ccc(Nc2nc3ccnc(-c4cc(OC)c(OC)c(OC)c4)n3n2)cc1[N+](=O)[O-] | 5.26 | 
6.78 | 7.07 | 7.64 | 7.46 |  | COc1cc(-c2ccnc3nc(Nc4cccc5[nH]ccc45)nn23)cc(OC)c1OC | 7.15 | 
< 5.00 | < 5.00 | < 5.00 | < 5.00 |  | COc1cc(-c2nccc3nc(Nc4cccc5ccn(C)c45)nn23)cc(OC)c1OC | < 5.00 | 
7.54 | 7.89 | 7.80 | 7.34 | 56% | COc1cc(-c2nccc3nc(Nc4cccc5c4ccn5C)nn23)cc(OC)c1OC | 7.40 | pIC50 [3]: 6.15; IC50 (Tubulin): 1600 nM
6.69 | 7.04 | 7.40 | 7.19 | 77% | COc1cc(-c2nccc3nc(Nc4ccc5c(ccn5C)c4)nn23)cc(OC)c1OC | 6.03 | pIC50 [3]: 6.26; IC50 (Tubulin): 15300 nM
6.68 | 7.07 | 6.97 | 6.59 | 29% | COc1cc(-c2nccc3nc(Nc4ccc5cc[nH]c5c4)nn23)cc(OC)c1OC | 6.21 | 
7.39 | 5.60 | 7.06 | 7.59 |  | COc1cc(-c2cncc3nc(Nc4cccc5[nH]ccc45)nn23)cc(OC)c1OC | 6.37 | 
8.15 |  | 7.96 | 8.15 |  | CC(=O)O[C@H]1C(=O)[C@@]2(C)[C@H]([C@H](OC(=O)c3ccccc3)[C@]3(O)C[C@H](OC(=O)[C@H](O)[C@@H](NC(=O)c4ccccc4)c4ccccc4)C(C)=C1C3(C)C)[C@]1(OC(C)=O)CO[C@@H]1C[C@@H]2O [PACLITAXEL] | 8.15 | pIC50 (A2780/Taxol): 6.50
< 5.00 | < 5.00 | < 5.00 | < 5.00 |  | COCOc1cc(Nc2nc3ccnc(-c4cc(OC)c(OC)c(OC)c4)n3n2)ccc1C | < 5.00 | 
< 5.00 | 6.00 | < 5.00 | < 5.00 |  | COc1cc(-c2nccc3nc(Nc4ccc5c(c4)c4ccccc4n5C)nn23)cc(OC)c1OC | 5.67 | 
 |  |  |  |  | CC[C@]1(O)C[C@H]2CN(CCc3c([nH]c4ccccc34)[C@@](C(=O)OC)(c3cc4c(cc3OC)N(C=O)[C@H]3[C@@](O)(C(=O)OC)[C@H](OC(C)=O)[C@]5(CC)C=CCN6CC[C@]43[C@@H]65)C2)C1 [VINCRISTINE] |  | pIC50 (HCT-8): 6.76; pIC50 [16]: 5.54; Ratio IC50 [17]: 16.9; Activity [18]: inactive
6.93 | 6.70 | 6.75 | 6.72 | 86% | COc1ccc(Nc2nc3ccnc(-c4cc(OC)c(OC)c(OC)c4)n3n2)cc1N | 5.74 | pIC50 [3]: 6.49; IC50 (Tubulin): 4200 nM
5.66 | < 5.00 | 6.20 | 6.55 | 26% | COc1cc(-c2nccc3nc(Nc4ccc5ccn(C)c5c4)nn23)cc(OC)c1OC | 5.15 | 
5.97 | 6.30 | 6.69 | 6.44 | 46% | COc1ccc(Nc2nc3ccnc(-c4cc(OC)c(OC)c(OC)c4)n3n2)cc1O | 5.50 | 
< 5.00 | < 5.00 | < 5.00 | < 5.00 |  | COc1cc(-c2nccc3nc(Nc4cccc5[nH]c6ccccc6c45)nn23)cc(OC)c1OC | < 5.00 | 

Structure (SMILES) | pIC50 (HeLa) | pIC50 (A549 [1]) | pIC50 (BXPC-3) | pIC50 (MCF7) | inhibition [2] | pIC50 (KP-4) | also measured
COc1cc(-c2nccc3nc(Nc4cccc5c4ccn5P(=O)([O-])[O-])nn23)cc(OC)c1OC.[Na+].[Na+] | 7.96 | 7.92 | 8.05 | 7.32 |  | 7.38 | AUC(0-t) at 24 h [4]: 850 ng·h/mL; AUC(0-inf) [5]: 908 ng·h/mL; MRT last at 24 h [6]: 1.8 h; MRT inf [7]: 2.4 h; half-life [8]: 1.8 h; Tmax [9]: 6 min; Cmax [10]: 334 ng/mL; Activity (A549 [11]): 204.6 mm3; Activity (A549 [12]): 91%; Activity (A549 [13]): Active; Activity [14]: Non-Toxic; MTD at 5 days [15]: 100 mg/kg
